Measurements from patent EP4786452A1, “AMIDE COMPOUNDS” (China Pharmaceutical University, priority 2023, dated 2025).
Marks after values point to notes of the source that are not given here. One block for each molecule: values may come before it.

Key:
in vitro [1] = settings: human, blood, Half-life T 1/2 in human whole blood
Description: (§1) 1 mM stock solutions of the test compounds were prepared in DMSO, and a 1 mM stock solution of the reference compound propantheline was prepared in acetonitrile.
(§2) 4 µL of test compound stock solution (or reference compound stock solution) was added to 796 µL of pre-incubated whole blood (CD-1 mouse whole blood or human whole blood) at a final concentration of 5 µM. The final concentration of the solvent was 0.5%. At different time points (including 5 min, 15 min, 30 min, 60 min, and 120 min), a 50 µL aliquot of the whole blood containing the sample was added to a new tube and incubated in a 37 °C water bath with shaking at 60 rpm. The treatment was performed in duplicate. At designated time points, 300 µL of room-temperature quenching solution (a solution of acetonitrile containing internal standards (100 nM alprazolam, 500 nM labetalol, and 2 µM ketoprofen)) was added to the whole blood sample containing the sample to terminate the reaction. 50 µL of whole blood containing the sample was added to a new tube containing 300 µL of room-temperature quenching solution to prepare a sample at 0 min. All samples were vortexed for 5 min. The samples in the plate were centrifuged at 3220 g for 30 min at 4 °C to precipitate the proteins. 100 µL of the supernatant was transferred to a new 96-well plate containing 100 µL of water for LC-MS/MS analysis.
(§3) The peak area ratio was determined by using an extracted ion chromatogram. The proportion of remaining compound at each time point was calculated according to the following formula: Remaining proportion t min (%) = peak area ratio t min / peak area ratio 0 min × 100% [formula] • Peak area ratio t min: peak area ratio of reference compound to test compound at t min; • Peak area ratio 0 min: peak area ratio of reference compound to test compound at time zero.
(§4) The slope value was determined by linear regression on the curve of the natural logarithm of the remaining proportion of the test compound versus the incubation time.
(§5) Determination of in vitro half-life (in vitro t1/2) from the slope value: in vitro t1/2 = 0.693/k [formula] in the formula, k is the rate constant (k = -slope value)

[2] = human, microsomes, 1 µM, pH 7.4
Description: (§6) The metabolic stability of compounds disclosed herein in liver microsomes was determined using the following method.
(§7) Liver microsome source: Human liver microsome (Corning, 452117) • 2. Na2HPO4 (Tianjin Guangfu Fine Chemical Research Institute, 20180130) • 3. KH2PO4 (Tianjin Guangfu Fine Chemical Research Institute, 20180920) • 4. MgCl2 (Tianjin Guangfu Fine Chemical Research Institute, 20191216) • 5. NADPH (Solarbio, 1216C022) • 6. Positive control compound: verapamil (Sigma, MKBV4993V) • 7. AB Sciex Triple Quad 4000 liquid chromatography-mass spectrometry system
(§8) Preparation of 100 mM phosphate-buffered saline (PBS): 7.098 g Na2HPO4 was dissolved in 500 mL of purified water by sonication to give solution A. 3.400 g of KH2PO4 was dissolved in 250 mL of purified water by sonication to give solution B. Solution A was placed on a stirrer, and solution B was added slowly until the pH reached 7.4, so as to give a 100 mM PBS buffer. […] Preparation of reaction system The reaction system was prepared according to the table below.
(§9) The reaction system was pre-incubated in a 37 °C water bath for 10 min. 40 µL of 10 mM NADPH solution (in 100 mM phosphate-buffered saline) was added to the reaction system, with the final NADPH concentration being 1 mM. A negative control was prepared by replacing the NADPH solution with 40 µL of phosphate-buffered saline. The negative control was used to exclude the effect of the chemical stability of the compound itself. […] The reaction was initiated by adding 4 µL of 100 µM compound disclosed herein or positive control compound verapamil to the reaction system at a final concentration of 1 µM. […] After 0.5 min, 15 min, 30 min, 45 min, and 60 min of mixing well by using a vortex oscillator, 50 µ L of the incubated sample was taken out, and glacial acetonitrile containing an internal standard of 4 folds was added to terminate the reaction. The sample was centrifuged at 3,220 g for 45 min. 90 µL of the supernatant was transferred to a feeding plate after the centrifugation was completed, and 90 µL ultrapure water was added. The mixture was well mixed for LC-MS/MS analysis.
(§10) All data were calculated by using Microsoft Excel software. The peak areas were determined by using an extracted ion chromatogram. The in vitro half-life (T1/2) of the test compound was determined by linear fitting of the natural logarithm of the elimination proportion of the test compound over time. In vitro half-life (T1/2) was calculated by the slope k: in vitro T1/2 = 0.693/k [formula]
(§11) The in vitro intrinsic clearance (in vitro CLint, unit: µL/min/mg protein) was calculated using the following formula: in vitro CLint = k × volume of incubation solution/enzyme protein content; [formula]

AR = AR antagonistic activity: AR / PSA ARE1 luciferase reporter gene assay in transfected LNCaP cells stimulated with 1 nM DHT; type: cell-based
Description: LNCaP cells were plated in a 6-well plate (Corning, 3516) at 8 × 10^5 cells/well.
Transfection reagents Lipo 3000 and P3000 (Lipofectamine™ 3000) and AR and PSA ARE1 reporter gene plasmids (Bio (Anhui) Co., Ltd.) (a total of 2.5 µg of plasmids, i.e., 1.25 µg of each plasmid, were added to each well) were left to stand and incubated at room temperature for 10 min, and then 250 µL of the above transfection reagents were added dropwise to each well containing cells.
The cells were washed with PBS, and the medium was replaced with a phenol red-free RPMI-1640 medium containing 5% carbon adsorption serum. The cells were re-plated onto a 96-well plate (Corning, 3603) according to the number of cells plated (2 × 10^4 cells/well).
After cell plating, the test compound (or DMSO or positive control) was added. After at least 30 min of incubation (incubator, 37 °C, 5% CO2), DHT (dihydrotestosterone) was added to the culture system at a final concentration of 1 nM. The culture system was then incubated in a carbon dioxide incubator. The final volume of the system in the plate was 100 µL.
Test compound: 10 mM stock solution, with a final concentration of 3.3 µM or 6.7 µM. Negative control: 0.1% DMSO. Positive control: 30 µM enzalutamide.
After the test compound (or DMSO or positive control) and DHT were co-incubated for 6 or 24 h, the luciferase signal was detected using the Vazyme Bright-Lite substrate. The medium was added at 70 µL/well, and the plate was shaken for 2 min, followed by reading of the luciferase signal.
Assay robustness was confirmed using the DMSO and low concentration control data: Ave_H = Ave (DMSO) [formula] Ave_L = Ave (30000nMenzalutamide) [formula] Inhibition rate (%) = (Ave_H−Sample)/(Ave_H−Ave_L) × 100% [formula] • Ave_H: the measurement of the negative control (0.1% DMSO); • Ave_L: the measurement of the positive control (30 µM enzalutamide); • Sample: the measurement of the test compound;

in vitro [3] = settings: mouse, blood, Half-life T 1/2 in CD-1 mouse whole blood
Description: as §1, §2, §3, §4, §5

[4] = 5 µM
Description: as §1, §2, §3, §4, §5

[5] = 5 µM; remark: listed apart in the source
Description: as §1, §2, §3, §4, §5

in vitro [6] = settings: human, microsomes; for microsomal CLint at 1 µM: pH 7.4, In vitro Clint; for half-life at 1 µM: pH 7.4, In vitro T1/2
Description: as §6, §7, §8, §9, §10, §11

C57BL/6 mice = assay: In vivo pharmacodynamic study: hair growth scoring in shaved telogen-phase mice; settings: for Score (mean±SD): hair growth score 0-5, 0.5 wt% applied to shaved area twice daily
Text: Vehicle: propylene glycol/ethanol (30:70, v/v)
Animal information: C57BL/6 mice (male, aged 6 weeks, about 18-20 g), purchased from Shanghai Lingchang Biotechnology Co., Ltd. The mice were bred in an SPF-level environment within independently ventilated cages. All animals had free access to a certified, commercial standard laboratory diet and drinking water.
Skin preparation: After 1-2 weeks of acclimation, the hairs in a 2 cm × 3 cm area of the back of the mice were shaved to confirm that the hairs of the mice were in the telogen phase (the skin was pink) and the skin was not damaged.
The control group received the vehicle. 12 mice were in each group.
The scoring criteria are as follows: • 0: no growth, with pink skin in the shaved area; • 1: the skin in the shaved area was gray (an increase of less than 20%); • 2: the skin in the shaved area was black (more than 20% but less than 40%); • 3: the skin in the shaved area was black with a little hair growth (more than 40% but less than 60%); • 4: the skin in the shaved area was black with partial hair growth (more than 60% but less than 80%); • 5: basically complete hair growth (80%-100% growth) in the shaved area.

[7] = mouse, in vivo
Description: Treatment: On day 3 after shaving, the mice were grouped for treatment. […] The control group received the vehicle. 12 mice were in each group.

[8] = incubation time: 24 h, test concentration: 3.3 µM, LNCaP cells, 1 nM DHT, normalised to 0.1% DMSO and 30 µM enzalutamide

half-life at 5 µM (in vitro [1]): 119 min | In vitro Clint [2]: 670.7 µL/min/mg protein | In vitro T1/2 [2]: 2.1 min | half-life at 5 µM (in vitro [3]): 3.54 min
Structure (SMILES): CCOC(=O)CCCC(C)(O)C(=O)Nc1cnc(C#N)c(C(F)(F)F)c1 (single isomer, unassigned) [Compound 005]
AR antagonism (inhibition rate, %) (AR; 6 h, 6.7 µM): 92.96^b %

Half-life T 1/2 in human whole blood [4]: 183.42 min | Half-life T 1/2 in CD-1 mouse whole blood [5]: 3.61 min | In vitro Clint [2]: 199.5 µL/min/mg protein | In vitro T1/2 [2]: 6.9 min
Structure (SMILES): CCOC(=O)CCCC(C)(O)C(=O)Nc1cnc(C#N)c(C(F)(F)F)c1 (single isomer, unassigned) [Compound 006]
AR antagonism (inhibition rate, %) (AR; 24 h, 3.3 µM): 88.13^a % | AR antagonism (inhibition rate, %) (AR; 24 h, 6.7 µM): 90.51^c %

microsomal CLint at 1 µM (in vitro [6]): 226 µL/min/mg | half-life at 1 µM (in vitro [6]): 6.1 min | half-life at 5 µM (in vitro [1]): 82.7 min | half-life at 5 µM (in vitro [3]): 2.7 min
Structure (SMILES): COC(=O)CCCC(C)(O)C(=O)Nc1cnc(C#N)c(C(F)(F)F)c1 (single isomer, unassigned) [Compound 007]
AR antagonism (inhibition rate, %) (AR; 24 h, 6.7 µM): 100.00^c %

Half-life T 1/2 in human whole blood [4]: 141.44 min | Half-life T 1/2 in CD-1 mouse whole blood [5]: 3.94 min | In vitro Clint [2]: 131.2 µL/min/mg protein | In vitro T1/2 [2]: 10.6 min
Structure (SMILES): COC(=O)CCCC(C)(O)C(=O)Nc1cnc(C#N)c(C(F)(F)F)c1 (single isomer, unassigned) [Compound 008]
AR antagonism (inhibition rate, %) (AR; 6 h, 6.7 µM): 92.41^b %

microsomal CLint at 1 µM (in vitro [6]): 234 µL/min/mg | half-life at 1 µM (in vitro [6]): 5.9 min | half-life at 5 µM (in vitro [1]): 210 min | half-life at 5 µM (in vitro [3]): 10 min
Structure (SMILES): CC(C)OC(=O)CCCC(C)(O)C(=O)Nc1cnc(C#N)c(C(F)(F)F)c1 (single isomer, unassigned) [Compound 009]
AR antagonism (inhibition rate, %) (AR; 24 h, 6.7 µM): 97.66^c %

Half-life T 1/2 in human whole blood [4]: 351.20 min | Half-life T 1/2 in CD-1 mouse whole blood [5]: 5.97 min | In vitro Clint [2]: 124.8 µL/min/mg protein | In vitro T1/2 [2]: 11.1 min
Structure (SMILES): CC(C)OC(=O)CCCC(C)(O)C(=O)Nc1cnc(C#N)c(C(F)(F)F)c1 (single isomer, unassigned) [Compound 010]
Score (mean±SD) (C57BL/6 mice; Day 0): 0 | Score (mean±SD) (C57BL/6 mice; Day 10): 0.2±0.4 | Score (mean±SD) (C57BL/6 mice; Day 13): 0.2±0.4 | Score (mean±SD) (C57BL/6 mice; Day 16): 0.3±0.5 | Score (mean±SD) (C57BL/6 mice; Day 20): 0.7±0.7 | Score (mean±SD) (C57BL/6 mice; Day 23): 0.8±0.6 | Score (mean±SD) (C57BL/6 mice; Day 27): 1.1±0.7 | Score (mean±SD) (C57BL/6 mice; Day 32, ** P < 0.01 vs. vehicle control group): 1.9±0.7** | effect on hair growth (C57BL/6 mice; mice with telogen hair growth, 0.5 wt%, BID topically at 20 µL/cm^2, P < 0.01 from day 32): significant promoting effect on hair growth | AR antagonism (inhibition rate, %) (AR; 24 h, 6.7 µM): 85.37^c % | signs of erythema, dehiscence, desquamation on the skin [7]: no signs of erythema, dehiscence, desquamation

microsomal CLint at 1 µM (in vitro [6]): 487 µL/min/mg | half-life at 1 µM (in vitro [6]): 2.8 min | half-life at 5 µM (in vitro [1]): 118 min | half-life at 5 µM (in vitro [3]): < 0.5 min
Structure (SMILES): CCOC(=O)CCCC(C)(O)C(=O)Nc1cnc(C#N)c(SC)c1 (single isomer, unassigned) [Compound 013]

Half-life T 1/2 in human whole blood [4]: 164.02 min | Half-life T 1/2 in CD-1 mouse whole blood [5]: 4.34 min | In vitro Clint [2]: 270.78 µL/min/mg protein | In vitro T1/2 [2]: 5.12 min
Structure (SMILES): COC(=O)CCCC(C)(O)C(=O)Nc1cnc(C#N)c(SC)c1 (single isomer, unassigned) [Compound 015]
AR antagonism (inhibition rate, %) (AR; 24 h, 3.3 µM): 92.46^a %

Half-life T 1/2 in human whole blood [4]: 70.19 min | Half-life T 1/2 in CD-1 mouse whole blood [5]: 9.44 min | In vitro Clint [2]: 1216.15 µL/min/mg protein | In vitro T1/2 [2]: 1.14 min
Structure (SMILES): COC(=O)CCCC(C)(O)C(=O)Nc1cnc(C#N)c(SC)c1 (single isomer, unassigned) [Compound 016]

microsomal CLint at 1 µM (in vitro [6]): 243 µL/min/mg | half-life at 1 µM (in vitro [6]): 5.7 min | half-life at 5 µM (in vitro [1]): 206 min | half-life at 5 µM (in vitro [3]): 4.64 min
Structure (SMILES): CSc1cc(NC(=O)C(C)(O)CCCC(=O)OC(C)C)cnc1C#N (single isomer, unassigned) [Compound 017]

Half-life T 1/2 in human whole blood [4]: 194.81 min | Half-life T 1/2 in CD-1 mouse whole blood [5]: 4.93 min | In vitro Clint [2]: 247.8 µL/min/mg protein | In vitro T1/2 [2]: 5.6 min
Structure (SMILES): CSc1cc(NC(=O)C(C)(O)CCCC(=O)OC(C)C)cnc1C#N (single isomer, unassigned) [Compound 018]
AR antagonism (inhibition rate, %) (AR; 24 h, 6.7 µM): 63.12^c %

Structure (SMILES): CC(O)(CCCCO)C(=O)Nc1cnc(C#N)c(C(F)(F)F)c1 (centres unmarked) [Compound 001, N-[6-cyano-5-(trifluoromethyl)pyridin-3-yl]-2,6-dihydroxy-2-methyl-hexanamide]
AR antagonism (inhibition rate, %) (AR; [8]): 87.89^a %

Structure (SMILES): CC(O)(CCO)C(=O)Nc1cnc(C#N)c(C(F)(F)F)c1 (centres unmarked) [Compound 002, N-[6-cyano-5-(trifluoromethyl)pyridin-3-yl]-2,4-dihydroxy-2-methylbutanamide]
AR antagonism (inhibition rate, %) (AR; [8]): 59.75^a %

Half-life T 1/2 in human whole blood [4]: 89.49 min | Half-life T 1/2 in CD-1 mouse whole blood [5]: 1.13 min
Structure (SMILES): CCOC(=O)CCC[C@](C)(O)C(=O)Nc1cnc(C#N)c(SC)c1 [Compound 014, ethyl (6S)/(6R)-6-((6-cyano-5-(methylthio)pyridin-3-yl)amino)-5-hydroxy-5-methyl-6-oxohexanoate]
AR antagonism (inhibition rate, %) (AR; incubation time: 24 h, test concentration: 6.7 µM, LNCaP cells, 1 nM DHT, normalised to 0.1% DMSO and 30 µM enzalutamide): 64.39^c %

Structure (SMILES): CSc1cc(NC(=O)C(C)(O)CCCC(=O)OC(C)(C)C)cnc1C#N (centres unmarked) [Compound 019, tert-butyl 6-((6-cyano-5-(methylthio)pyridin-3-yl)amino)-5-hydroxy-5-methyl-6-oxohexanoate]
AR antagonism (inhibition rate, %) (AR; incubation time: 6 h, test concentration: 6.7 µM, LNCaP cells, 1 nM DHT, normalised to 0.1% DMSO and 30 µM enzalutamide): 57.98^b %

Structure (SMILES): CCOC(=O)CCCC(C)(O)C(=O)Nc1cnc(C#N)c([Se]C)c1 (centres unmarked) [Compound 024, Ethyl 6-[(6-cyano-5-methylselanylpyridin-3-yl)amino]-5-hydroxy-5-methyl-6-oxohexanoate]
AR antagonism (inhibition rate, %) (AR; [8]): 88.18^a %

Structure (SMILES): CCOC(=O)CCCCC(C)(O)C(=O)Nc1cnc(C#N)c(C(F)(F)F)c1 (centres unmarked) [Compound 027, Ethyl 7-((6-cyano-5-(trifluoromethyl)pyridin-3-yl)amino)-6-hydroxy-6-methyl-7-oxoheptanoate]
AR antagonism (inhibition rate, %) (AR; [8]): 76.55^a %

Structure (SMILES): CCOC(=O)CCCC(C)(O)C(=O)Nc1ccc(C#N)c(SC)c1 (centres unmarked) [Compound 029, Ethyl 6-(4-cyano-3-methylthio-anilino)-5-hydroxy-5-methyl-6-oxohexanoate]
AR antagonism (inhibition rate, %) (AR; [8]): 98.41^a %

Structure (SMILES): CCOC(=O)CCCC(C)(O)C(=O)Nc1ccc(C#N)c(OC)c1 (centres unmarked) [Compound 030, Ethyl 6-(4-cyano-3-methoxy-anilino)-5-hydroxy-5-methyl-6-oxohexanoate]
AR antagonism (inhibition rate, %) (AR; [8]): 98.45^a %

Structure (SMILES): CSc1cc(NC(=O)C(O)CCCC(=O)OC(C)C)cnc1C#N (centres unmarked) [Compound 032, Isopropyl 6-((6-cyano-5-(methylthio)pyridin-3-yl)amino)-5-hydroxy-6-oxohexanoate]
AR antagonism (inhibition rate, %) (AR; [8]): 92.25^a %
